Experimental findings from BindingDB's records for doi:10.1016/S0960-894X(01)80331-0 (1994) are described below.

Assay [1] can be described thus: In Vitro Binding affinity againist 5-hydroxytryptamine 1D receptor by displacing [125I]GTI from pig caudate.
Assay [2] in a line: In Vitro Binding affinity againist 5-hydroxytryptamine 2C receptor by displacing [3H]mesulergine from pig cortex.
A short description of assay [3]: In Vitro Binding affinity againist 5-HT1A receptor by displacing [3H]8-OH-DPAT from pig cortex.

For the compound `NCCc1coc2ccc(C(N)=O)cc12`, the IC50 (as a rule, the midpoint of a concentration-inhibition curve) was 43 nM in assay [1], 661 nM in assay [2] and 4.6 nM in assay [3].
On the same counts, the results for `NCCC1COc2ccc(C(N)=O)cc21` (stereo unspecified) are 776 nM, 8130 nM and 72 nM.
